Test results: patent publication US7875638B2, “Synthesis of epothilones, intermediates thereto, analogues and uses thereof” (Sloan-Kettering Institute for Cancer Research, priority 2002, dated 2011)
“And” between values parts separate entries of the source, which are not always exact repeats. Equal values may be shown once. Read-outs that look alike come from different tables or passages of the source.

What was measured:
[1] = Octanol-water partition (POW) number by HPLC; format: physicochemical; settings: HPLC estimate, pH 7.4 buffer; read-out: Lipophilicity octanol/water partition (POW)
Method: Determination of partition of octanol-water (POW) number. An HPLC method is used to estimate octanol-water partition. An Agilent 1100 HPLC system is used with an eclipse XDB C18 column 4.6×250 mm with a mobile phase of 60% acetonitrile/40% 25 mM potassium phosphate buffer at pH 7.4 with a flow rate of 0.8 ml per min. and the eluent is monitored at 250 nm. The standards used are benzyl alcohol, acetophenone, benzophenone, naphthalene, diphenyl ether and dibenzyl with known POW of […] respectively. Sodium dichromate is used to evaluate time zero which is 2.5 min and the retention times for the standards are 3.9, 5.4, 10.6, 14, 18.7 and 19.8 min, respectively. The k value is calculated by the formula of k=(trt−t0)/t0. Linear regression of log k vs. log POW gives a straight line with r^2=0.966. This graph is used to evaluate the POW value of the epothilone analogs.

[2] = tested on: Human marrow stromal cell lines, HS-27A and HS-5; experiment: XTT cell proliferation, normal stromal cells; settings: read-out: IC50, stromal lines HS-27A and HS-5
From the text: Human marrow stromal cell lines, HS-27A and HS-5 immortalized by E6/E7 genes, have normal marrow stromal function, which support stem cell self-renewal, and proliferation.

[3] = tested on: RPMI8226; experiment: XTT cell growth inhibition, RPMI8226; format: cell-based; settings: Homo sapiens
[4] = tested on: RL; experiment: XTT cell growth inhibition, RL; format: cell-based; settings: Homo sapiens, read-out: IC50 (nM), RL
[5] = tested on: CAG myeloma cell lines; experiment: Cell cycle analysis (propidium iodide DNA staining), CAG; format: cell-based, human; settings: 31.25 nM
From the text: CAG myeloma cell lines were used.

[6] = tested on: SKOV3; experiment: XTT cell growth inhibition, SKOV3; format: cell-based; settings: Homo sapiens
[7] = tested on: human mammary carcinoma MX-1 xenograft; settings: mouse, in vivo
[8] = tested on: CAG; experiment: XTT cell growth inhibition, CAG; format: cell-based; settings: Homo sapiens, read-out: IC50 (nM), CAG
[9] = tested on: HCT-116; experiment: XTT cell growth inhibition, HCT-116; format: cell-based; settings: Homo sapiens
[10] = tested on: HT-29; experiment: XTT cell growth inhibition, HT-29; format: cell-based; settings: Homo sapiens
[11] = tested on: HS-27A; experiment: XTT cell growth inhibition, HS-27A; format: cell-based; settings: Homo sapiens, read-out: IC50 (nM), HS-27A
[12] = tested on: human xenografts in nude mice, such as MX-1; parameters: Relative therapuetic index at MTD: key to the marks not given beside the values
[13] = tested on: RPMI8226 myeloma cell line; experiment: Annexin V staining, RPMI8226; format: cell-based, human; settings: 24 hours treatment
From the text: In early apoptotic cells, the membrance phospholipids phosphatidylserine (PS) is translocated from the inner to the outer leaflet of the plasma membrane, thereby exposing PS to the external cellular environment. Annexin V is a 35-36 kD Ca^+2 dependent phospholipid-binding protein that has a high affinity for PS, and binds to cells with exposed PS. In conjunction with a vital dye such as 7-amino-actinomycin (7-AAD) staining dead cells, this assay allows the identification of early apoptotic cells.

[14] = tested on: IGROV; experiment: XTT cell growth inhibition, IGROV; format: cell-based; settings: Homo sapiens, read-out: IC50 (nM), IGROV
[15] = tested on: RPMI8226 myeloma cell lines; experiment: Cell cycle analysis (propidium iodide DNA staining), RPMI8226; format: cell-based, human; settings: 31.25 nM
From the text: RPMI8226 myeloma cell lines were used.

[16] = tested on: Ovarian cancer lines; experiment: XTT cell growth inhibition, ovarian cancer lines (mean); format: cell-based; settings: Homo sapiens, read-out: Mean IC50, ovarian lines
[17] = tested on: MDA MB435; experiment: XTT cell growth inhibition, MDA MB435; format: cell-based; settings: Homo sapiens
[18] = tested on: HS-5; experiment: XTT cell growth inhibition, HS-5; format: cell-based; settings: Homo sapiens
[19] = tested on: Ovcar-3; experiment: XTT cell growth inhibition, Ovcar-3; format: cell-based; settings: Homo sapiens
[20] = tested on: Ovcar-4; experiment: XTT cell growth inhibition, Ovcar-4; format: cell-based; settings: Homo sapiens
[21] = tested on: caspase 3; experiment: Caspase 3 activation by Western blot; format: cell-based, human; settings: myeloma cells
From the text: It is not clear whether caspase is involved in this process. Firstly, we investigated the activation of caspase 3, an effector caspase in the caspase pathway, in myeloma cells, by Western blot. […] Immunohistochemical staining of CAG myeloma cells using antibody specific to cleaved caspase-3 was used to show cytoplasmic and perinuclear localization features in apoptotic cells. […] Secondly, we attempted to assay the activity of caspase 8 and 9, initiator caspase in the caspase pathway, by fluorometric method. […] Note that increased caspase 9 activity was more prominent than caspase 8. The signals triggering the activation of caspase 8 or 9 are actively under investigation.

[22] = in vitro; settings: mouse, plasma
Method: Stability of epothilones in mouse and in human liver S9 fraction. The stability study was carried out with a fully automated HPLC system which consisted of a Prospekt-2 (Spark Holland, Netherlands) sample preparation system and an Agilent 1100 HPLC system. Briefly, the Prospekt 2 picked up a C8 extraction cartridge and washed it with acetonitrile and water. The Agilent autosampler, set at 37° C., picked up 20 μl of the sample, loaded it onto the cartridge, washed it with water, then the Prospekt-2 diverted the mobile phase stream through the extraction cartridge onto the analytical column, Reliance Stable Bond C8 4×80 mm with guard column (MacMod, Chadds Ford, Pa.) and the eluent was monitored at 250 nm. […] Sample preparation involved the addition of equal volumes of plasma to PBS for a total volume of 300-400 μl, filtered, and the addition of 0.5-2 μl of the substrate (20 mM) to achieve about 30-50 mAU at 250 nm in the HPLC analysis. For pooled human liver microsome S9 fraction (Xeno Tech, Lenex, Kans.), 20 μl (400 μg) or S9 fraction was mixed with 280 μl of PBS then proceeded as above. The sampling period was controlled by the autosampler and peak area data were collected to compare the rate of disappearance of the parent compound.
Stability of epothilones in mouse and in human liver S9 fraction: The stability study was carried out with a fully automated HPLC system which consisted of a Prospekt-2 (Spark Holland, Netherlands) sample preparation system and an Agilent 1100 HPLC system. Briefly, the Prospekt 2 picked up a C8 extraction cartridge and washed it with acetonitrile and water. The Agilent autosampler, set at 37° C., picked up 20 μl of the sample, loaded it onto the cartridge, washed it with water, then the Prospekt-2 diverted the mobile phase stream through the extraction cartridge onto the analytical column, Reliance Stable Bond C8 4×80 mm with guard column (MacMod, Chadds Ford, Pa.) and the eluent was monitored at 250 nm. […] Sample preparation involves the addition of equal volumes of plasma to PBS for a total volume of 400 μl, filtered, and the addition of 0.5-2 μl of the substrate (20 mM) to achieve about 30-50 mAU at 250 nm in the HPLC analysis. For pooled human liver microsome S9 fraction (Xeno Tech, Lenex, Kans.), 20 μl (400 μg) or S9 fraction was mixed with 280 μl of PBS then proceeds as above. The sampling period was controlled by the autosampler and peak area data were collected to compare the rate of disappearance of the parent compound.

[23] = tested on: human colon carcinoma HCT-116 xenograft; settings: 96 h
[24] = tested on: human T-cell lymphoblastic leukemia CCRF-CEM/Taxol xenograft; experiment: CCRF-CEM/Taxol xenograft in nude mice; format: in vivo
[25] = tested on: lymphoma lines (SKIDLBCL and RL); experiment: XTT cell proliferation, lymphoma lines; format: cell-based, human
[26] = tested on: paclitaxel resistant human lung carcinoma A549/Taxol xenograft; settings: 20 mg/kg, Q2Dx7, 6 hr-i.v. infusion; cited from earlier work

Q: For C/C1=C/CC(/C(C)=C/c2csc(C)n2)OC(=O)C[C@H](O)C(C)(C)C(=O)[C@H](C)[C@@H](O)[C@@H](C)CCC1 (some centres unmarked) [Compound 1, 12,13-desoxyepothilone B, reference compound], which chromatographic logP [1] is on record?
A: 4.4

Q: What about the IC50 [2] of the same molecule?
A: 90 to 100 nM

Q: And the IC50 ([3]; RPMI-8226, read-out: IC50 (nM), RPMI8226)?
A: 36.7 ± 2 nM

Q: What about the IC50 [4] of the same molecule?
A: 90 ± 11 nM

Q: What about the Cell cycle arrest [5] of the same molecule?
A: absolutely blocked cell cycle at G2M phase

Q: What about the IC50 ([6]; SK-OV-3, read-out: IC50 (nM), SKOV3) of the same molecule?
A: 13 ± 4.7 nM

Q: What about the “Decrease in body weight without lethality” value [7] of the same molecule?
A: 31%

Q: What about the IC50 [8] of the same molecule?
A: 61.3 ± 4.2 nM

Q: What about the IC50 ([9]; HCT-116, read-out: IC50 (nM), HCT-116) of the same molecule?
A: 7.5 ± 3.1 nM

Q: What about the IC50 ([10]; HT-29, read-out: IC50 (nM), HT-29) of the same molecule?
A: 7.2 ± 2.2 nM

Q: What about the IC50 [11] of the same molecule?
A: 100 ± 10 nM

Q: And the “Dose accomplishing complete suppression of tumor in a variety of xenografts” value ([12]; mouse, in vivo)?
A: 30 mg/kg

Q: And the “Maximal b.w. % drop without death” value ([12]; mouse, in vivo)?
A: 32%

Q: And the “Apoptosis (Annexin V / 7-AAD)” value [13]?
A: majority of cell either enter apoptosis or are dead

Q: What about the IC50 [14] of the same molecule?
A: 15 ± 3.8 nM

Q: And the Cell cycle arrest [15]?
A: absolutely blocked cell cycle at G2M phase

Q: And the IC50 [16]?
A: 16.5 nM

Q: What about the IC50 ([17]; MDA-MB-435, read-out: IC50 (nM), MDA MB435) of the same molecule?
A: 7.8 ± 4.2 nM

Q: And the IC50 ([18]; HS5, read-out: IC50 (nM), HS-5)?
A: 100 ± 8 nM

Q: What about the IC50 ([19]; OVCAR-3, read-out: IC50 (nM), Ovcar-3) of the same molecule?
A: 14 ± 3.6 nM

Q: What about the IC50 ([20]; OVCAR-4, read-out: IC50 (nM), Ovcar-4) of the same molecule?
A: 16 ± 2.5 nM

Q: What about the “Cleaved caspase 3 (Western blot)” value [21] of the same molecule?
A: increased 17 kd cleaved caspase 3

Q: Which results are given for C/C(=C\c1csc(C)n1)[C@@H]1C/C=C(/C(F)(F)F)C/C=C/[C@H](C)[C@H](O)[C@@H](C)C(=O)C(C)(C)[C@@H](O)CC(=O)O1 [Compound 29, 26-trifluoro-trans-9,10-dehydro-12,13-desoxyepothilone B]?
A: chromatographic logP [1]: 3.3; half-life [22]: 3.53 ± 1.47 h; Cell kill [23]: > 11.6 log; IC50 [2]: 90 to 100 nM; IC50 ([3]; RPMI-8226, Myeloma, XTT tetrazonium assay, read-out: IC50 (nM), RPMI8226): 7.6 ± 1.2 nM; IC50 ([4]; Lymphoma, XTT tetrazonium assay): 80 ± 11 nM; Cell cycle arrest [5]: absolutely blocked cell cycle at G2M phase; IC50 ([6]; SK-OV-3, Ovarian Ca, XTT tetrazonium assay, read-out: IC50 (nM), SKOV3): 1.6 ± 0.5 nM; Maximal body weight decrease [7]: Only minor loss of body weight; Maximal drop of the body weight ([7]; po, 30 mg/kg): 15%; IC50 ([8]; Myeloma, XTT tetrazonium assay): 12 ± 1.8 nM; IC50 ([9]; HCT-116, Colon Ca, XTT tetrazonium assay, read-out: IC50 (nM), HCT-116): 3.6 ± 1.3 nM; IC50 ([10]; HT-29, Colon Ca, XTT tetrazonium assay, read-out: IC50 (nM), HT-29): 4 ± 1.7 nM; IC50 ([11]; Marrow stroma, XTT tetrazonium assay): 102 ± 8 nM; Maximal b.w. % drop without death ([12]; mouse, in vivo): 33%; Relative therapuetic index at MTD ([12]; mouse, in vivo): +++++; Curative therapeutic dose range ([12]; mouse, in vivo, iv): 10 to 30 mg/kg; Optimal dose for i.v. infusion ([12]; mouse, in vivo, iv): 20 to 30 mg/kg; Therapeutic dose regimen for Q2D 6 hr-iv infusion ([12]; mouse, in vivo, iv): 10 to 30 mg/kg; Optimal dose for the oral administration ([12]; oral): 20 mg/kg, QD or 30 mg/kg Q2D; Final tumor suppression on D34 ([24]; 15 mg/kg): 98.8%; Tumor disappearance (mice) ([24]; 15 mg/kg, 6 hr-i.v. infusion, Q2Dx7 then Q2Dx5): 1 out of 4; Tumor disappearance (mice) ([24]; 15 mg/kg, 6 hr-i.v. infusion, Q2Dx7 then Q2Dx5, listed as 26-F3-9,10-deH-dEpo B): 1/3; Tumor disappearance (mice) ([24]; 15 mg/kg, 6 hr-i.v. infusion, Q2Dx7 then Q2Dx5, listed as Fludelone): 1/3; Tumor disappearance (mice) ([24]; 30 mg/kg Q2Dx7, 6 hr-i.v. infusion (first cycle)): 2 out of 4; Tumor disappearance (mice) ([24]; 30 mg/kg, 6 hr-i.v. infusion, Q2Dx7 then Q2Dx5, listed as 26-F3-9,10-deH-dEpo B): ¾; Tumor disappearance (mice) ([24]; 30 mg/kg, 6 hr-i.v. infusion, Q2Dx7 then Q2Dx5, listed as Fludelone): 3 out of 4 and 3/4; Final tumor suppression ([24]; 30 mg/kg, Q2Dx7 then Q2Dx5): 99.8%; Apoptosis (Annexin V / 7-AAD) [13]: majority of cell either enter apoptosis or are dead; IC50 ([14]; Ovarian Ca, XTT tetrazonium assay): 2 ± 1.2 nM; Cell cycle arrest [15]: absolutely blocked cell cycle at G2M phase; IC50 [16]: 1.6 nM; IC50 ([17]; MDA-MB-435, Breast Ca, XTT tetrazonium assay, read-out: IC50 (nM), MDA MB435): 5.8 ± 2.8 nM; Inhibitory doses in two NHL lines relative to doses effective in MM [25]: 5-10 fold; IC50 ([25]; Homo sapiens, XTT): 60 to 80 nM; IC50 ([18]; HS5, Marrow stroma, XTT tetrazonium assay, read-out: IC50 (nM), HS-5): 96 ± 7 nM; IC50 ([19]; OVCAR-3, Ovarian Ca, XTT tetrazonium assay, read-out: IC50 (nM), Ovcar-3): 1.1 ± 0.4 nM; IC50 ([20]; OVCAR-4, Ovarian Ca, XTT tetrazonium assay, read-out: IC50 (nM), Ovcar-4): 1.8 ± 0.7 nM; Effect on A549/Taxol xenograft (recent report) [26]: complete tumor growth suppression but failed to achieve tumor disappearance; Cleaved caspase 3 (Western blot) [21]: increased 17 kd cleaved caspase 3
